From patent US9732094B2, “Arylquinazolines” (Merck Patent GmbH, priority 2013, dated 2017)
Where two headings read alike, the source gives them in different places.

Key:
[1] = target: DNA-PK (Homo sapiens (Human), UniProt P78527); test: DNA-PK assay (biochemical), flashplate 33P-ATP kinase assay; settings: biochemical DNA-PK assay
How it was run: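 Radiometric kinase reaction in streptavidin-coated flashplates, stopped with 200 mM EDTA, then 30 min room-temperature incubation and saline washes.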

[2] = target: DNA-PK phosphorylation at serine 2056 (Homo sapiens (Human), UniProt P78527); test: DNA-PK phosphorylation at serine 2056 (cellular), bleomycin-treated HCT116 cells, ELISA; assay type: cell-based; settings: cellular DNA-PK phosphorylation at serine 2056, HCT116; read-out: IC50 pDNA-PK
How it was run: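 After overnight seeding, HCT116 cells received compound with 10 μM bleomycin for 6 h; phospho-DNA-PK ELISA signals were scaled to total DNA-PKcs, DMSO serving as blank.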

[3] = target: Kv11.1 (hERG) (Homo sapiens (Human), UniProt Q12809); test: Kv11.1 (hERG) ion channel activity (patch clamp assay), HEK293 cells transfected with hERG gene; settings: hERG patch clamp assay (cells without asterisk)
Sequence of Kv11.1 (hERG) (Q12809 whole entry): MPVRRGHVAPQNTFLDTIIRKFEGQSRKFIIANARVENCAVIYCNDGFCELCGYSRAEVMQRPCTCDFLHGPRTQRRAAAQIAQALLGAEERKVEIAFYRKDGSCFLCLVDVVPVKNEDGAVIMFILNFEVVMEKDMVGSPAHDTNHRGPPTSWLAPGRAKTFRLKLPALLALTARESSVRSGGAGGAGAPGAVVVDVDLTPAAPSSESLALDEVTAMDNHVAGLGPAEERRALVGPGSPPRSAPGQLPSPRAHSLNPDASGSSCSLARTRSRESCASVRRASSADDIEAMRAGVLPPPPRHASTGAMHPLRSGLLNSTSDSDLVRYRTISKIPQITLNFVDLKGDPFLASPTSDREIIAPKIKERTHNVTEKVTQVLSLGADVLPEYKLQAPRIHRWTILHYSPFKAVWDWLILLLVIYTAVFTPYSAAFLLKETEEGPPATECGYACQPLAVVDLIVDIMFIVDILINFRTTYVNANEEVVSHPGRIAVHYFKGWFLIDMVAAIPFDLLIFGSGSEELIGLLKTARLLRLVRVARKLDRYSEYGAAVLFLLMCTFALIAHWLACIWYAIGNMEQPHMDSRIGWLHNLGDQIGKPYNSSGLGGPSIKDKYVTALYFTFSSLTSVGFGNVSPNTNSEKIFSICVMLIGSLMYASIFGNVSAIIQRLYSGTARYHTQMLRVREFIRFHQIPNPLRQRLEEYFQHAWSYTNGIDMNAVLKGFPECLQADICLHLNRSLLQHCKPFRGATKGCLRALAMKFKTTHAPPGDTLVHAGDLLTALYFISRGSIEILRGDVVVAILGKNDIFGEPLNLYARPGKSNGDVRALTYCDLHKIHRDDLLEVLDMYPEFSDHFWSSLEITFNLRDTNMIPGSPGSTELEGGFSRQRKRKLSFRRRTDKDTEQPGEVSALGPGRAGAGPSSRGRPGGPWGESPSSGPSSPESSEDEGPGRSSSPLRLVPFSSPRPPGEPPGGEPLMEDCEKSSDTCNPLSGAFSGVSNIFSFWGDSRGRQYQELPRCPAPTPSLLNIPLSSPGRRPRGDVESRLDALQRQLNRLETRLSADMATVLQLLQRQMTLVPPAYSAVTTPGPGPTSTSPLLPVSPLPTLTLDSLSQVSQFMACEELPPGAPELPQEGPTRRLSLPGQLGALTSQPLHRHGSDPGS

Row | Compound | IC50 [1] | IC50 [2] | Ki ([3]; read-out: Ki [Kv1.11 hERG]) | Ki ([3]; Ki [Kv1.11 hERG])
1 | OC(c1cc(-c2ncnc3cc(N4CCOCC4)ccc23)c(F)cc1F)c1nccnc1OC(F)F (stereo not drawn) [Example 449, (3-Difluoromethoxy-pyrazin-2-yl)-[2,4-difluoro-5-(7-morpholin-4-yl-quinazolin-4-yl)-phenyl]methanol] | < 3 nM | 500 to 5000 nM | > 25000 nM | 
2 | OC(c1cc(-c2ncnc3cc(N4CCOCC4)ccc23)c(F)cc1F)c1nccnc1OC(F)F (stereo not drawn) [Example 450, (3-Difluoromethoxy-pyrazin-2-yl)-[2,4-difluoro-5-(7-morpholin-4-yl-quinazolin-4-yl)-phenyl]methanol] | 7 to 30 nM | 5000 to 10000 nM |  | 15000 to 25000 nM
3 | OC(c1cc(-c2ncnc3cc(N4CCOCC4)ccc23)c(F)cc1F)c1nccnc1OC(F)F (stereo not drawn) [Example 451, (3-Difluoromethoxy-pyrazin-2-yl)-[2,4-difluoro-5-(7-morpholin-4-yl-quinazolin-4-yl)-phenyl]methanol] | 3 to 7 nM | 500 to 5000 nM | 15000 to 25000 nM | 
4 | OC(c1cc(-c2ncnc3cc(N4CCOCC4)ccc23)c(F)cc1Cl)c1ncnc2ccoc12 (stereo not drawn) [Example 452, [2-Chloro-4-fluoro-5-(7-morpholin-4-yl-quinazolin-4-yl)-phenyl]furo[3,2-d}-pyrimidin-4-yl-methanol] | < 3 nM | < 500 nM |  | 10000 to 15000 nM
5 | COc1nccnc1C(O)c1cc(-c2ncnc3cc(N4CCOCC4)ccc23)c(F)cc1F (stereo not drawn) [Example 453, [2,4-Difluoro-5-(7-morpholin-4-yl-quinazolin-4-yl)-phenyl]-(3-methoxy-pyrazin-2-yl)-methanol] | 3 to 7 nM | < 500 nM |  | 10000 to 15000 nM
6 | COc1nccnc1C(O)c1cc(-c2ncnc3cc(N4CCOCC4)ccc23)c(F)cc1F (stereo not drawn) [Example 454, [2,4-Difluoro-5-(7-morpholin-4-yl-quinazolin-4-yl)-phenyl]-(3-methoxy-pyrazin-2-yl)-methanol] | < 3 nM | < 500 nM | > 25000 nM | 
7 | COc1nccnc1[C@H](O)c1cc(-c2ncnc3cc(N4CCOCC4)ccc23)c(F)cc1Cl [Example 455, (R)-[2-Chloro-4-fluoro-5-(7-morpholin-4-yl-quinazolin-4-yl)-phenyl]-(3-methoxy-pyrazin-2-yl)-methanol] | < 3 nM | < 500 nM |  | 15000 to 25000 nM
8 | COc1nccnc1[C@@H](O)c1cc(-c2ncnc3cc(N4CCOCC4)ccc23)c(F)cc1Cl [Example 456, (S)-(2-Chloro-4-fluoro-5-(7-morprholin-4-yl-quinazolin-4-yl)-pnenyl]-(3-methoxy-pyrazin-2-yl)-methanol] | < 3 nM | < 500 nM |  | 10000 to 15000 nM
9 | Cc1nccnc1C(O)c1cc(-c2ncnc3cc(N4CCOCC4)ccc23)c(F)cc1Cl (stereo not drawn) [Example 457, [2-Chloro-4-fluoro-5-(7-morpholin-4-yl-quinazolin-4-yl)-phenyl]-(3-methyl-pyrazin-2-yl)-methanol] | 3 to 7 nM | < 500 nM | > 25000 nM | 
10 | COc1ccc(C(O)c2cc(-c3ncnc4cc(N5CCOCC5)ccc34)ccc2Cl)nn1 (stereo not drawn) [Example 458, [2-Chloro-5-(7-morpholin-4-yl-quinazolin-4-yl)-phenyl]-(6-methoxy-pyridazin-3-yl)-methanol] | < 3 nM | < 500 nM |  | 10000 to 15000 nM
11 | CCOc1cccnc1C(O)c1ccc(F)c(-c2ncnc3cc(N4CCOCC4)ccc23)c1 (stereo not drawn) [Example 463, (3-Ethoxy-pyridin-2-yl)-[4-fluoro-3-(7-morpholin-4-yl-quinazolin-4-yl)-phenyl]methanol] | 3 to 7 nM | < 500 nM |  | 15000 to 25000 nM
12 | OC(c1ccc(F)c(-c2ncnc3cc(N4CCOCC4)ccc23)c1)c1nccnc1OC(F)F (stereo not drawn) [Example 464, (3-Difluoromethoxy-pyrazin-2-yl)-[4-fluoro-3-(7-morpholin-4-yl-quinazolin-4-yl)-phenyl]methanol] | 3 to 7 nM | 500 to 5000 nM |  | 15000 to 25000 nM
